For the assay, the target named is Speckle-type POZ protein-Bromodomain-containing protein 2 (Homo sapiens) (UniProt P25440+O43791). Put plainly: PROTAC activity at SPOP/BRD2 in human HT-29 cells assessed as induction of BRD2 degradation by measuring fold change at 5 uM incubated for 24 hrs by Western blot analysis (reference value: 1.00). The class given is cell-based. In general terms: In western blotting, separated proteins are transferred to a membrane and probed.
Chain of Speckle-type POZ protein-Bromodomain-containing protein 2 (Homo sapiens) (O43791 whole entry, looked up): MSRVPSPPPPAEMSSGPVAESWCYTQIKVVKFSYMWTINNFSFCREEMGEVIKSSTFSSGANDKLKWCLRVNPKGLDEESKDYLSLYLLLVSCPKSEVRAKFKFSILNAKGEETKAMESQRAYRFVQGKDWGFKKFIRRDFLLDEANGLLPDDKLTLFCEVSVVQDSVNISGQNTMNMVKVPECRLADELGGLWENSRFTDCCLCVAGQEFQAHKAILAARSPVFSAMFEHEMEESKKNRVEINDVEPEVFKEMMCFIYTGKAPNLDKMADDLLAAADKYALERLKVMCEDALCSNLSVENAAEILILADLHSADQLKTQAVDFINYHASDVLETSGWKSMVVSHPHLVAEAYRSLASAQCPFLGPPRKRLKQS
Chain of Speckle-type POZ protein-Bromodomain-containing protein 2 (Homo sapiens) (P25440 whole entry, looked up): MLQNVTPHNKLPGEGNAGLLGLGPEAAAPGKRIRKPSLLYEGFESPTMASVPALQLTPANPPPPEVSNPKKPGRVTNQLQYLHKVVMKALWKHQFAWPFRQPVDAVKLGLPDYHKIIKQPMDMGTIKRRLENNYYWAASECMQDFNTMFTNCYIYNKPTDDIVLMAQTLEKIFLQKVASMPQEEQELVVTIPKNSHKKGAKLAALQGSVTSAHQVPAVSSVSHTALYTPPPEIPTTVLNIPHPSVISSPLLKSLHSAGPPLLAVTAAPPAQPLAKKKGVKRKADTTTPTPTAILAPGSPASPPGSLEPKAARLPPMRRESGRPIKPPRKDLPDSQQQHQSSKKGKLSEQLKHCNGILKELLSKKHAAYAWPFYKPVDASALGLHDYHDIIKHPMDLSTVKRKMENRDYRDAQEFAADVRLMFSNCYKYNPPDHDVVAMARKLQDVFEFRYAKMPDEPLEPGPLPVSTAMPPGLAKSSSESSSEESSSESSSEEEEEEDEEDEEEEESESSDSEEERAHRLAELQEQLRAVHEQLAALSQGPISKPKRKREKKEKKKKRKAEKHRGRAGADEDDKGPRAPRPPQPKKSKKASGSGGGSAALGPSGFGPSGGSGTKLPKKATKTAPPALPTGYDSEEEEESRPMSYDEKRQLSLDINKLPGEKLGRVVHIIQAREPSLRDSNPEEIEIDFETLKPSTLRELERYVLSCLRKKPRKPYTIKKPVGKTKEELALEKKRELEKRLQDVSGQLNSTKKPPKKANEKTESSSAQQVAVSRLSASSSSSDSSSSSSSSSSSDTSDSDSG

On to `COc1cc2c(NC3CCN(CCCC(=O)NCCCCCCCCCCNC(=O)C[C@@H]4N=C(c5ccc(Cl)cc5)c5c(sc(C)c5C)-n5c(C)nnc54)CC3)cc(N3CCOCC3)nc2cc1OCCCN1CCCC1`, for which the fold change (FC) amounted to 0.9.

The values are drawn from ChEMBL document CHEMBL6109152, “Harnessing the SPOP E3 Ubiquitin Ligase via a Bridged Proteolysis Targeting Chimera (PROTAC) Strategy for Targeted Protein Degradation” (J Med Chem, 2025).
